Data: article PMC3794980, “Identification of Conserved and HLA Promiscuous DENV3 T-Cell Epitopes” (PLoS Neglected Tropical Diseases, 2013)

Tests used:
Assay in all cases: biochemical
Assay type in all cases: binding
DRB4*0101 = DRB4*0101 (Homo sapiens, UniProt P01903+P13762, G164S)
DRB5*0101 = DRB5*0101 (Homo sapiens, UniProt P01903+Q30154)
DRB3*0101 = DRB3*0101 (Homo sapiens, UniProt P01903+P79483)

| Structure (SMILES) | IC50 (DRB4*0101) [nM] | IC50 (DRB5*0101) [nM] | IC50 (DRB3*0101) [nM] |
| --- | --- | --- | --- |
| CC[C@H](C)[C@H](NC(=O)[C@@H]1CCCN1C(=O)[C@H](CCC(=O)O)NC(=O)[C@H](CC(C)C)NC(=O)[C@@H](N)CS)C(=O)N[C@@H](CCC(=O)O)C(=O)NCC(=O)N[C@@H](CCCCN)C(=O)N[C@H](C(=O)N[C@H](C(=O)N[C@@H](CCC(N)=O)C(=O)N[C@@H](Cc1ccc(O)cc1)C(=O)N[C@@H](CCC(=O)O)C(=O)N[C@@H](CC(N)=O)C(=O)N[C@@H](CC(C)C)C(=O)O)C(C)C)C(C)C [Envelope 121-135] | 1100 | 13300 | – |
| CC[C@H](C)[C@H](NC(=O)[C@H](CC(C)C)NC(=O)[C@H](CO)NC(=O)[C@H](C)NC(=O)[C@H](CCCCN)NC(=O)[C@H](CCC(=O)O)NC(=O)[C@H](CC(C)C)NC(=O)[C@H](CCCCN)NC(=O)[C@H](Cc1c[nH]c2ccccc12)NC(=O)[C@@H](N)CO)C(=O)N[C@@H](CCC(=O)O)C(=O)N[C@H](C(=O)N[C@@H](CCCCN)C(=O)N[C@H](C(=O)N[C@@H](CS)C(=O)O)[C@@H](C)O)C(C)C [NS1 209-223] | 5020 | 1180 | – |
| CC[C@H](C)[C@H](NC(=O)[C@@H](NC(=O)[C@H](CCSC)NC(=O)[C@H](CC(=O)O)NC(=O)[C@H](CO)NC(=O)[C@H](CCC(=O)O)NC(=O)[C@H](CC(C)C)NC(=O)[C@@H](NC(=O)CNC(=O)[C@H](CC(N)=O)NC(=O)[C@H](CO)NC(=O)[C@H](Cc1c[nH]c2ccccc12)NC(=O)[C@H](CC(C)C)NC(=O)[C@@H](NC(=O)[C@@H](N)Cc1c[nH]cn1)[C@@H](C)O)C(C)C)[C@@H](C)CC)C(=O)O [NS1 229-243] | 8080 | – | 733 |
| CC[C@H](C)[C@H](NC(=O)[C@@H](N)CCSC)C(=O)N[C@H](C(=O)N1CCC[C@H]1C(=O)N[C@@H](CCCCN)C(=O)N[C@@H](CO)C(=O)N[C@@H](CC(C)C)C(=O)N[C@@H](C)C(=O)NCC(=O)N1CCC[C@H]1C(=O)N[C@H](C(=O)N[C@@H](CO)C(=O)N[C@@H](CCC(N)=O)C(=O)N[C@@H](Cc1c[nH]cn1)C(=O)N[C@@H](CC(N)=O)C(=O)O)[C@@H](C)CC)[C@@H](C)CC [NS1 241-255] | 1090 | 3200 | – |
| CC(C)C[C@H](NC(=O)[C@H](CCC(=O)O)NC(=O)[C@H](CC(C)C)NC(=O)[C@H](CCCCN)NC(=O)CNC(=O)[C@H](CC(C)C)NC(=O)[C@H](Cc1c[nH]cn1)NC(=O)[C@H](Cc1c[nH]c2ccccc12)NC(=O)[C@@H]1CCCN1C(=O)CNC(=O)[C@H](C)NC(=O)[C@@H](NC(=O)[C@H](CCC(N)=O)NC(=O)[C@@H](NC(=O)[C@@H](N)Cc1c[nH]cn1)[C@@H](C)O)[C@@H](C)O)C(=O)O [NS1 261-275] | 666 | – | 1330 |
| CSCC[C@H](NC(=O)[C@H](Cc1ccc(O)cc1)NC(=O)[C@H](CCCNC(=N)N)NC(=O)[C@H](CC(C)C)NC(=O)[C@@H]1CCCN1C(=O)[C@@H]1CCCN1C(=O)[C@H](CC(C)C)NC(=O)[C@@H](NC(=O)[C@H](CS)NC(=O)[C@H](CO)NC(=O)[C@H](CCCNC(=N)N)NC(=O)[C@@H](N)CS)[C@@H](C)O)C(=O)NCC(=O)N[C@@H](CCC(=O)O)C(=O)N[C@@H](CC(=O)O)C(=O)O [NS1 313-327] | 503 | 2270 | – |
| CC[C@H](C)[C@H](NC(=O)[C@H](CC(C)C)NC(=O)[C@H](CC(=O)O)NC(=O)[C@H](CCCCN)NC(=O)[C@@H](N)CCCCN)C(=O)N[C@@H](CO)C(=O)N[C@@H](Cc1ccc(O)cc1)C(=O)NCC(=O)NCC(=O)NCC(=O)N[C@@H](Cc1c[nH]c2ccccc12)C(=O)N[C@@H](CCCNC(=N)N)C(=O)N[C@@H](CC(C)C)C(=O)N[C@@H](CO)C(=O)N[C@@H](C)C(=O)O [NS3 73-87] | 3470 | 71 | – |
| CC[C@H](C)[C@H](N)C(=O)N[C@@H](CO)C(=O)N[C@@H](Cc1ccc(O)cc1)C(=O)NCC(=O)NCC(=O)NCC(=O)N[C@@H](Cc1c[nH]c2ccccc12)C(=O)N[C@@H](CCCNC(=N)N)C(=O)N[C@@H](CC(C)C)C(=O)N[C@@H](CO)C(=O)N[C@@H](C)C(=O)N[C@@H](CCC(N)=O)C(=O)N[C@@H](Cc1c[nH]c2ccccc12)C(=O)N[C@@H](CCC(N)=O)C(=O)N[C@@H](CCCCN)C(=O)O [NS3 77-91] | 708 | – | 2020 |
| CC[C@H](C)[C@H](NC(=O)[C@@H](NC(=O)[C@H](CC(C)C)NC(=O)[C@H](CC(N)=O)NC(=O)[C@H](CCCNC(=N)N)NC(=O)[C@H](CCCCN)NC(=O)[C@H](CCCCN)NC(=O)[C@H](Cc1ccccc1)NC(=O)[C@H](CCSC)NC(=O)[C@H](CCC(=O)O)NC(=O)[C@@H](N)CCC(=O)O)[C@@H](C)O)C(=O)N[C@@H](CCSC)C(=O)N[C@@H](CC(=O)O)C(=O)N[C@@H](CC(C)C)C(=O)N[C@@H](Cc1c[nH]cn1)C(=O)O [NS3 181-195] | 68 | – | 1260 |
| CC[C@H](C)[C@H](NC(=O)[C@@H](NC(=O)[C@H](CC(C)C)NC(=O)[C@H](CC(N)=O)NC(=O)[C@H](CCCNC(=N)N)NC(=O)[C@H](CCCCN)NC(=O)[C@@H](N)CCCCN)[C@@H](C)O)C(=O)N[C@@H](CCSC)C(=O)N[C@@H](CC(=O)O)C(=O)N[C@@H](CC(C)C)C(=O)N[C@@H](Cc1c[nH]cn1)C(=O)N1CCC[C@H]1C(=O)NCC(=O)N[C@@H](CO)C(=O)NCC(=O)O [NS3 185-199] | 7.6 | – | 1460 |
| CC[C@H](C)[C@H](NC(=O)[C@H](C)NC(=O)[C@H](CCC(=O)O)NC(=O)[C@H](CCCNC(=N)N)NC(=O)[C@@H](N)C(C)C)C(=O)N[C@@H](CCCCN)C(=O)N[C@@H](CCCNC(=N)N)C(=O)N[C@@H](CCCNC(=N)N)C(=O)N[C@@H](CC(C)C)C(=O)N[C@@H](CCCNC(=N)N)C(=O)N[C@H](C(=O)N[C@@H](CC(C)C)C(=O)N[C@H](C(=O)N[C@@H](CC(C)C)C(=O)N[C@@H](C)C(=O)O)[C@@H](C)CC)[C@@H](C)O [NS3 209-223] | 5.1 | – | 2610 |
| CC[C@H](C)[C@H](NC(=O)[C@H](CO)NC(=O)[C@H](C)N)C(=O)N[C@@H](C)C(=O)N[C@@H](C)C(=O)N[C@@H](CCCNC(=N)N)C(=O)NCC(=O)N[C@@H](Cc1ccc(O)cc1)C(=O)N[C@H](C(=O)N[C@@H](CO)C(=O)N[C@H](C(=O)N[C@@H](CCCNC(=N)N)C(=O)N[C@H](C(=O)NCC(=O)N[C@@H](CCSC)C(=O)O)C(C)C)[C@@H](C)O)[C@@H](C)CC [NS3 293-307] | 2670 | – | 18900 |
| CC[C@H](C)[C@H](NC(=O)[C@H](Cc1c[nH]c2ccccc12)NC(=O)[C@H](CCC(=O)O)NC(=O)[C@H](CC(N)=O)NC(=O)CNC(=O)[C@H](CO)NC(=O)[C@H](CC(N)=O)NC(=O)[C@@H](N)Cc1c[nH]c2ccccc12)C(=O)N[C@H](C(=O)N[C@@H](CC(=O)O)C(=O)N[C@@H](Cc1ccccc1)C(=O)N[C@@H](C)C(=O)NCC(=O)N[C@@H](CCCCN)C(=O)N[C@H](C(=O)O)[C@@H](C)O)[C@@H](C)O [NS3 345-359] | 1050 | – | 32 |
| CC[C@H](C)[C@H](NC(=O)[C@H](Cc1c[nH]c2ccccc12)NC(=O)[C@H](CCC(=O)O)NC(=O)[C@@H](N)CC(N)=O)C(=O)N[C@H](C(=O)N[C@@H](CC(=O)O)C(=O)N[C@@H](Cc1ccccc1)C(=O)N[C@@H](C)C(=O)NCC(=O)N[C@@H](CCCCN)C(=O)N[C@H](C(=O)N[C@H](C(=O)N[C@@H](Cc1c[nH]c2ccccc12)C(=O)N[C@@H](Cc1ccccc1)C(=O)N[C@H](C(=O)O)C(C)C)C(C)C)[C@@H](C)O)[C@@H](C)O [NS3 349-363] | 5420 | – | 221 |
| CC[C@H](C)[C@H](NC(=O)[C@H](CCC(=O)O)NC(=O)CNC(=O)[C@H](CCCNC(=N)N)NC(=O)[C@H](CCCCN)NC(=O)[C@H](CC(C)C)NC(=O)CNC(=O)[C@H](CCC(=O)O)NC(=O)[C@H](CCCCN)NC(=O)[C@H](C)NC(=O)[C@H](CCC(=O)O)NC(=O)[C@@H](N)[C@@H](C)O)C(=O)N[C@H](C(=O)N[C@@H](Cc1c[nH]cn1)C(=O)N[C@@H](Cc1c[nH]cn1)C(=O)N[C@@H](C)C(=O)N[C@H](C(=O)O)C(C)C)[C@@H](C)O [NS5 39-55] | 563 | – | 749 |
| CC[C@H](C)[C@H](NC(=O)[C@H](CCSC)NC(=O)[C@H](CO)NC(=O)[C@H](CO)NC(=O)[C@H](C)NC(=O)[C@H](CO)NC(=O)CNC(=O)[C@@H](NC(=O)[C@H](C)NC(=O)[C@H](CCCCN)NC(=O)[C@@H](NC(=O)[C@H](CCC(=O)O)NC(=O)[C@H](Cc1ccc(O)cc1)NC(=O)[C@H](CO)NC(=O)CN)C(C)C)[C@@H](C)O)C(=O)N[C@@H](CC(N)=O)C(=O)NCC(=O)O [NS5 306-322] | 5550 | – | 2290 |
| CSCC[C@H](NC(=O)[C@H](C)NC(=O)[C@H](CCSC)NC(=O)[C@H](CCC(N)=O)NC(=O)[C@@H](NC(=O)[C@@H](NC(=O)[C@@H](N)CCSC)C(C)C)[C@@H](C)O)C(=O)N[C@H](C(=O)N[C@@H](CC(=O)O)C(=O)N[C@H](C(=O)N[C@H](C(=O)N1CCC[C@H]1C(=O)N[C@@H](Cc1ccccc1)C(=O)NCC(=O)N[C@@H](CCC(N)=O)C(=O)N[C@@H](CCC(N)=O)C(=O)N[C@@H](CCCNC(=N)N)C(=O)O)[C@@H](C)O)[C@@H](C)O)[C@@H](C)O [NS5 336-352] | 747 | 10400 | – |
| CC[C@H](C)[C@H](NC(=O)[C@H](Cc1ccc(O)cc1)NC(=O)CNC(=O)[C@H](CC(C)C)NC(=O)[C@H](CCCCN)NC(=O)[C@H](Cc1c[nH]cn1)NC(=O)[C@@H](N)CC(C)C)C(=O)N[C@@H](CC(C)C)C(=O)N[C@@H](CCCNC(=N)N)C(=O)N[C@@H](CC(=O)O)C(=O)N[C@H](C(=O)N[C@@H](CO)C(=O)N[C@@H](CCCCN)C(=O)N[C@H](C(=O)N1CCC[C@H]1C(=O)NCC(=O)NCC(=O)O)[C@@H](C)CC)[C@@H](C)CC [NS5 511-527] | 57 | 611 | – |
| CC[C@H](C)[C@H](NC(=O)[C@H](CC(=O)O)NC(=O)[C@H](CCSC)NC(=O)[C@@H](NC(=O)[C@@H](NC(=O)CNC(=O)[C@H](CCCCN)NC(=O)[C@@H]1CCCN1C(=O)[C@@H](NC(=O)[C@@H]1CCCN1)[C@@H](C)O)[C@@H](C)O)C(C)C)C(=O)N[C@H](C(=O)N[C@@H](CO)C(=O)N[C@@H](CCCNC(=N)N)C(=O)N[C@@H](CCCCN)C(=O)N[C@@H](CC(=O)O)C(=O)N[C@@H](CCC(N)=O)C(=O)N[C@@H](CCCNC(=N)N)C(=O)O)[C@@H](C)CC [NS5 582-598] | 1540 | – | 7220 |
